Key:
[1] = biological target: T1, E. coli β-galactosidase (Escherichia coli, UniProt P00722); experiment: in vitro; type: biochemical; conditions: PBS pH 7.4, 37° C., HPLC, read-out: TG release t1/2(min)
T1 construct: purchased Sigma G4155
Description: Compound A-1, A-2, or B-1 was dissolved in DMSO and mixed with PBS buffer solution to prepare 500 μM stock solution (1% DMSO). Methyl phenyl sulfone (MPS, CAS Number 3112-85-4, internal standard) was dissolved in PBS buffer solution to make 500 μM solution. 790 μL of PBS buffer (pH 7.4), 10 μL of the solution of compound A-1, A-2, or B-1 (500 μM) and 200 μL of MPS solution (500 μM) were mixed. Enzyme solution (E. coli β-galactosidase, Sigma G4155, 18 μL of 1 mg/mL) was added to 882 μL of the reaction mixture. When comparing with human p-galactosidase, 116 μL of the enzyme solution (0.1 mg/mL) was added, and solutions of compound A-1, A-2, or B-1 (140 μL), MPS (140 μL), and the buffer solution (533 μL, pH 7.4) were mixed.
The reaction mixture was incubated at 37° C. The enzyme reaction solution was aliquoted at 0 min before the reaction and at a predetermined time after the reaction, wherein each aliquot was 70 μL. The remaining compound A-1, A-2, or B-1, MPS, and the material liberated by the enzyme reaction were quantitatively analyzed by HPLC.

[2] = test system: NCI-N87 cancer cells; experiment: Cell cytotoxicity of conjugates (MTT), NCI-N87; type: cell-based; conditions: NCI-N87, 72 hours of incubation
Description: (§1) NCI-N87, SK-BR3 cancer cells were seeded in 96-well plates at a density of 5,000 cells per well in 100 μL of medium, and cultured for 24 hours. The eight compounds obtained in Example 55 and T-DM1 were treated by serial dilutions of 1:5 from 50 nM to 0.000128 nM. After 72 hours of incubation, 0.2 mL of 3-(4,5-dimethylthiazol-2-yl)-2,5-diphenyltetrazolium bromide (MTT) dye, dissolved in PBS buffer solution (5 mg/mL), was added to each well of the plates. The formazans formed by reduction of the MTT dye by mitochondrial oxidoreductases in the living cells were dissolved in DMSO, and measured using the absorbance at 550 nm.

[3] = test system: SK-BR3 cancer cells; experiment: Cell cytotoxicity of conjugates (MTT), SK-BR3; type: cell-based; conditions: SK-BR3, 72 hours of incubation
Description: as §1

T1 sequence (P00722 2-1024): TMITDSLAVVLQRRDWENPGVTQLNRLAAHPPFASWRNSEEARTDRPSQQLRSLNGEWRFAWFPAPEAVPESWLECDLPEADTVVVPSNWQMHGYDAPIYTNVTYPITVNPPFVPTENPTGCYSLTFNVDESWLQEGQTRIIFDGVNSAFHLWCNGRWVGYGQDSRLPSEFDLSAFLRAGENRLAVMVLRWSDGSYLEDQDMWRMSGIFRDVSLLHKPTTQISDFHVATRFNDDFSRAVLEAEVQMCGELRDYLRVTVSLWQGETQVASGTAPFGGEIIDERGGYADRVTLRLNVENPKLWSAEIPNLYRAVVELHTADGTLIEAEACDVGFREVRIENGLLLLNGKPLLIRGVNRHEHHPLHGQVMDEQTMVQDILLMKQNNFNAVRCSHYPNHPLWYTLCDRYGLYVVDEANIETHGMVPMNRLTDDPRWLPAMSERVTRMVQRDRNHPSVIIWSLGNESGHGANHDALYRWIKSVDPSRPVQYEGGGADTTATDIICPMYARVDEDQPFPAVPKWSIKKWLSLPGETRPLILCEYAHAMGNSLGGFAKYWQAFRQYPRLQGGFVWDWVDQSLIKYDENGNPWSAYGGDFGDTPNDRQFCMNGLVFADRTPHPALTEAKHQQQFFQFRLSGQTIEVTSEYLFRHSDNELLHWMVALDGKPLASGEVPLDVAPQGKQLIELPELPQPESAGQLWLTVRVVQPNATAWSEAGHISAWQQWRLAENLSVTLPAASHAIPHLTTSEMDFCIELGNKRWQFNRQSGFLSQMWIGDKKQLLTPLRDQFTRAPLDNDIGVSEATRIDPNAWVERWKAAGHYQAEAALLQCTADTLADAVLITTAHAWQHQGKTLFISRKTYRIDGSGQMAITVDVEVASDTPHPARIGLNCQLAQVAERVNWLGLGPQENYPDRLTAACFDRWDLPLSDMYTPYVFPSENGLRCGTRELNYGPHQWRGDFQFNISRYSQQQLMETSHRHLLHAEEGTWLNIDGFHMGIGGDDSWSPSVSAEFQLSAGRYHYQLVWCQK

CNC(=O)[C@H](Cc1ccc(OS(=O)(=O)Cc2ccc(OC3O[C@H](CO)[C@H](O)[C@H](O)[C@H]3O)cc2)cc1)NC(=O)OC(C)(C)C (some centres unmarked) [Compound A-1]
half-life at 4.9 μM [1]: < 5 min

C[N+]1(Cc2ccc(OS(=O)(=O)Cc3ccc(OC4O[C@H](CO)[C@H](O)[C@H](O)[C@H]4O)cc3)cc2)CCCC[C@@H]1C(=O)Nc1ccccc1 (some centres unmarked) [Compound B-1]
half-life at 4.9 μM [1]: < 5 min

T-DM1
IC50 [2]: 0.766 nM
IC50 [3]: 0.042 nM

CNC(=O)[C@H](Cc1ccc(OS(=O)(=O)Cc2ccc(OC3O[C@H](CO)[C@H](O)[C@H](O)[C@H]3O)c(C(=O)NCCOCCOCCOCCN=[N+]=[N-])c2)cc1)NC(=O)OC(C)(C)C (some centres unmarked) [Compound A-2]
half-life at 4.9 μM [1]: < 10 min
